Results reported in patent US6416979B1, “5-substituted picolinic acid compounds production by Marasmiellus sp” (Pfizer Inc., priority 1997, dated 2002).

Columns and labels:
TNF production = experiment: TNF Bioassay (LPS-stimulated human whole blood, TNF titer with L929 cells); assay type: cell-based; settings: heparinised human whole blood diluted four-fold, 10 μg/ml LPS, 37° C., 4 h; standard in vitro protocol
Method: (§1) Heparinised human whole blood diluted four-fold with RPMI medium was incubated with 10 μg/ml of Lipopolysaccharide (LPS) in the presence of various concentrations of samples at 37° C. in a humidified atmosphere containing 5% CO2 for 4 h. The TNF titer in the supernatants was determined with L929 cells which were destroyed by TNF quantitatively. L929 cells (2.5×10^4 cells) in 90 μl of E-MEM medium containing 1% fetal calf serum and 0.5 μg/ml of actinomycin D were placed in wells of 96-well microplates (flat-bottom). Ten μl of the supernatants was added to each well and incubated at 37° C. in a humidified atmosphere containing 5% CO2. After 18 h, the plates were rinsed with 0.9% sterile saline and stained for 10 min with 0.4% crystal violet in MeOH. The plates were washed with distilled water and were dried by air. Fifty μl of methanol was added to each well to elute the crystal violet, and the plates were read on a microplate reader (model 3550, BIO-RAD) at 595 nm. TNF production inhibitory activity is calculated by the formula: [formula]

IL-1 production = experiment: IL-1 Bioassay (supernatants of LPS-stimulated human whole blood, specific ELISA); assay type: cell-based; settings: heparinised human whole blood diluted four-fold, 10 μg/ml LPS, 37° C., 4 h, standard in vitro protocol
Method: as §1
The supernatants prepared by the same method as TNF bioassay were analyzed IL-1 titer by commercially available specific ELISA system. The plates were read on a microplate reader (model 3550, BIO-RAD) at 490 nm. IL-1 production inhibitory activity is calculated by the formula: [formula]

Row | SMILES | TNF biosynthesis inhibitory activities (TNF production) | IL-1 biosynthesis inhibitory activities (IL-1 production)
1 | CC(O)C(O)c1ccc(-c2nnnn2C)nc1 (centres unmarked) [5-(1,2-di-hydroxypropyl)-2-(1-methyl-1H-1,2,3,4-tetrazol-5-yl)pyridine] | found to have the IL-1 and TNF biosynthesis inhibitory activities | found to have the IL-1 and TNF biosynthesis inhibitory activities
2 | CC(O)C(O)c1ccc(-c2nnn(C)n2)nc1 (centres unmarked) [5-(1,2-di-hydroxypropyl)-2-(2-methyl-2H-1,2,3,4-tetrazol-5-yl)pyridine] | found to have the IL-1 and TNF biosynthesis inhibitory activities | found to have the IL-1 and TNF biosynthesis inhibitory activities
3 | CC(O)C(O)c1ccc(C#N)nc1 (centres unmarked) [5-(1,2-dihydroxypropyl)-2-pyridinecarbonitrile] | found to have the IL-1 and TNF biosynthesis inhibitory activities | found to have the IL-1 and TNF biosynthesis inhibitory activities
4 | CC(O)C(O)c1ccc(C(N)=O)nc1 (centres unmarked) [5-(1,2-dihydroxypropyl)-2-pyridinecarboxamide] | found to have the IL-1 and TNF biosynthesis inhibitory activities | found to have the IL-1 and TNF biosynthesis inhibitory activities
5 | CC(O)C(O)c1ccc(C(=O)O)nc1 (centres unmarked) [5-(1,2-dihydroxypropyl)-2-pyridinecarboxylic acid] | found to have the IL-1 and TNF biosynthesis inhibitory activities | found to have the IL-1 and TNF biosynthesis inhibitory activities
6 | CC(O)C(O)c1ccc(C(=O)N(C)C)nc1 (centres unmarked) [5-(1,2-dihydroxypropyl)-N,N-di-methyl-2-pyridinecarboxamide] | found to have the IL-1 and TNF biosynthesis inhibitory activities | found to have the IL-1 and TNF biosynthesis inhibitory activities
7 | COC(=O)c1ccc(C(OC(=O)c2ccc(Br)cc2)C(C)OC(=O)c2ccc(Br)cc2)cn1 (centres unmarked) [methyl 5-(1,2-di-p-bromobenzoyloxypropyl)-2-pyridinecarboxylate] | found to have the IL-1 and TNF biosynthesis inhibitory activities | found to have the IL-1 and TNF biosynthesis inhibitory activities
8 | COC(=O)c1ccc(C(OC(C)=O)C(C)OC(C)=O)cn1 (centres unmarked) [methyl 5-(1,2-diacetoxypropyl)-2-pyridinecarboxylate] | found to have the IL-1 and TNF biosynthesis inhibitory activities | found to have the IL-1 and TNF biosynthesis inhibitory activities
9 | COC(=O)c1ccc(C(O)C(C)O)cn1 (centres unmarked) [methyl 5-(1,2-dihydroxypropyl)-2-pyridinecarboxylate] | found to have the IL-1 and TNF biosynthesis inhibitory activities | found to have the IL-1 and TNF biosynthesis inhibitory activities
10 | COC(=O)c1ccc(C(OC(C)=O)C(C)O)cn1 (centres unmarked) [methyl 5-(1-acetoxy-2-hydroxypropyl)-2-pyridinecarboxylate] | found to have the IL-1 and TNF biosynthesis inhibitory activities | found to have the IL-1 and TNF biosynthesis inhibitory activities
